Experimental data from patent publication US20160310454A1, “LIVER X RECEPTOR AGONISTS IN THE TREATMENT OF EMPHYSEMA” (priority 2013, published 2016).
Structures can show the parent of a compound that is named as a salt.

Tests used:
[1] = tested on: mouse macrophages (bone marrow derived, ABCA1 fl/fl WT) treated with 5% CSE; assay: Mouse macrophages treated with 5% CSE with or without LXR agonist (RT-PCR, Western blot, zymography); format: cell-based; conditions: bone marrow derived macrophages, 5% CSE, LXR agonist 10 μM
Procedure: To prepare cigarette (CSE), the smoke from one cigarette (1.1 mg of nicotine, 15 mg of tar) was passed through 25 mls of phosphate buffered saline (PBS) (Mercer et al., 2004). The pH of the extracted solution was adjusted to 7.4 and then filtered (Mercer et al., 2004). CSE was added to the media at concentrations up to 5% (vol/vol) (Mercer et al., 2004).
In these experiments both mouse peritoneal and mouse bone marrow derived macrophages (BMdM) were utilized. Mouse peritoneal macrophages were isolated from peritoneal cavities of 3% thioglycolate injected mice on the 5th day from injection. To compare expression of genes in vitro and in vivo peritoneal macrophages were isolated from mice exposed to room air and cigarette smoke. For in vitro analysis cells were seeded on culture plates for 24 h and then treated with CSE. For in vivo analysis cells were collected from peritoneal cavity and mRNA was directly isolated. Mouse BMdMs were obtained from the following mice: ABCA1 fl/fl in a C57/BL6 background. Briefly, mice were first sacrificed by CO2 asphyxiation followed by cervical dislocation. After sacrificing the mouse the legs were amputated and the excess muscle tissue was removed so as to completely expose the femur and tibia, which were cleaned carefully. These samples were left in sterile PBS for the duration of the procedure. The cavity bones were then flushed with 10 ml of PBS using 26G needle. The obtained cells were then counted (usually 100-150 million cells per mouse) and centrifuged for 5 min at 2600 rpm. Hematopoietic cells can be separated by plastic adhesion; therefore the cells were incubated in petri dishes containing DMEM culture media and supplemented with 10% FBS and 1% antibiotics). Non-adherent progenitor cells were then collected after 2 hours of incubation in culture media and then seeded at a concentration of 4 million cells/ml in fresh culture media, supplemented with L-cell conditioned media containing macrophage colony stimulating factor (M-CSF) at a concentration of 20%. Approximately after 7-10 days of plating the cells become fully differentiated into macrophages and were ready for subsequent experiments. After treatment the culture supernatants, proteins, and total RNA were collected for analysis. […]
Total RNA was extracted from specimens of lung tissue 0.3 cm^3 in size with the use of the RNeasy kit (Qiagen, Germantown, Md.) (Goldklang et al., 2012). The RNA was then further processed to obtain cDNA, which was used for Real Time (RT) PCR analysis. TaqMan gene expression assays (Applied Biosystems, Carlsbad, Calif.) were performed to assess gene-transcript levels with the use of an ABI Prism 7900HT Sequence Detection System (Applera, Foster City, Calif.) (Goldklang et al., 2012). The following primers were used to check the respective gene expression: ABCA1 (Hs01059118_m1), ABCG1 (Hs00245154_m1), MMP-9 (Mm00442991_m1), IL-1β (Mm00434227_g1), TNF-α (Mm00443260_g1) and GAPDH (4352932E) from TaqMan Gene Expression Assays, Applied Biosystems, CA. β-actin was used as a control since it is a housekeeping gene.
The lungs of mice (-10 mg) were homogenized in 1 ml of Radioimmunoprecipitation assay (RIPA) buffer, and centrifuged at 14,000 g for 10 min. The protein concentration of each sample was measured using a Bradford reagent. The required amount of each sample was then used for western blot analysis, so that the concentration was equal for all samples. Proteins were first separated on the basis of molecular weight via sodium dodecyl sulphate polyacrylamide gel electrophoresis (SDS-PAGE). The same gel was then transferred onto a nitro cellulose membrane with the help of electric current (or electroblotting) that transfers the protein from polyacrylamide gel to the membrane. This membrane was then incubated in the solution containing primary antibodies, specific for the proteins of interest, ABCA1 and ABCG1, followed by the use of a secondary antibody that allowed the detection of protein by chemiluminescent. […]

[2] = tested on: alveolar macrophages; conditions: in vitro; cited from earlier work
[3] = tested on: murine disease models of atherosclerosis; conditions: mouse, in vivo; cited from earlier work

O=C(O)Cc1cccc(OCCCN(Cc2cccc(C(F)(F)F)c2Cl)CC(c2ccccc2)c2ccccc2)c1 [GW3965, 3-[3-[N-(2-Chloro-3-trifluoromethylbenzyl)-(2,2-diphenylethyl)amino]propyloxy]phenylacetic acid hydrochloride]
MMP9 expression (mRNA) after smoke exposure [1]: able to block
CXC10, CCL5, and IL-10 production [2]: anti-inflammatory effects
production of TNFα, IL-1β, or CXCL8 [2]: did not significantly suppress
cholesterol level in serum and liver [3]: lowers
development of atherosclerosis [3]: inhibits

CON(C)C(=O)CC[C@@H](C)[C@H]1CC[C@H]2[C@@H]3C[C@H](O)[C@@H]4C[C@H](O)CC[C@]4(C)[C@H]3CC[C@]12C [hypocholamide]
cholesterol level in serum and liver [3]: lowers
development of atherosclerosis [3]: inhibits
